Data published in patent publication US10898420B2, “Compositions containing phenolic compounds having synergistic antioxidant benefits” (L'OREAL, priority 2016, dated 2021).

Tests used:
[1] = Oxygen radical absorbance capacity (ORAC) assay, fluorescein probe with AAPH, Trolox standard; settings: individual antioxidant compound
Procedure: (§1) Synergism was determined by comparing the antioxidant capacities of combinations of components measured by ORAC and HORAC, with expected or additive values of the individual compounds. The […], measure two different antioxidant properties, radical chain breaking and prevention of radical formation. The ORAC and HORAC assays are both fluorometric assays that use hydrogen atom transfer chemistry to detect oxidation of a fluorescent probe. In the ORAC assay, a free radical initiator is used to produce peroxyl radical probes, while in the HORAC assay, a hydroxyl radical initiator and fenton reagent are used to produce hydroxyl radical probes.
(§2) As reflected in the Examples below, the expected ORAC/HORAC is the combined (additive) antioxidant capacity of each individual antioxidant compound in the association, measured individually and assuming that each is functioning independently. The expected ORAC or HORAC value of a certain association can be calculated by using the following equation: ORAC or HORAC (total)=sum of ORAC or HORAC (compound n, individually) multiplied by the Percentage (compound n, of use in a cosmetic composition), n=1, 2, 3 . . . .
The ORAC assay is one of most commonly used methods to evaluate the capacity of antioxidants against ROS (reactive oxygen species), specific for peroxyl which is one of the most important free radicals present in the human skin environment. […] Azo-initiators are considered to produce the peroxyl radical by heating, which damages the fluorescent molecule, resulting in the loss of fluorescence. […] By quantifying the decay of fluorescence using a fluorometer, the degree of protection is determined comparing with a standard control antioxidant Trolox. […] Equipment that can automatically measure and calculate the capacity is commercially available, such as the VarioSkan flash microplate reader from Thermo Scientific.
References disclosing ORAC assays include: Cao G, Alessio H, Cutler R (1993). “Oxygen-radical absorbance capacity assay for antioxidants”. […]

[2] = Hydroxyl oxygen radical absorbance capacity (HORAC) assay, fluorescent probe with hydrogen peroxide and Cobalt(II) fluoride, Gallic acid standard; settings: individual antioxidant compound
Procedure: as §1, §2
Similar to the ORAC assay, the HORAC assay is an in tubo assay designed to quantify the capacity of an antioxidant to avert the hydroxyl radical or anti-Fenton reaction. The hydroxyl radical, generated from hydrogen peroxide and Cobalt(II) fluoride (Fenton reaction), will quench a fluorescent probe by a hydrogen atom transfer reaction. Certain antioxidants can chelate the Co(II), preventing the generation of the hydroxyl radical and initially block or prevent the quenching of the probe. By quantifying the decay of fluorescence using a fluorometer, the degree of protection is determined comparing with a standard control antioxidant Gallic acid. The result is expressed in μMol equivalent of Gallic acid. Equipment that can automatically measure and calculate the capacity is commercially available, such as the VarioSkan flash microplate reader from Thermo Scientific. […]

## O=C(O)[C@H]1O[C@@H](Oc2cc3oc(-c4ccccc4)cc(=O)c3c(O)c2O)[C@H](O)[C@@H](O)[C@@H]1O [baicalin]
[1]
  ORAC: 4759 μmolTolox/g
[2]
  HORAC: 2592 μmolGAE/g

## COc1cc(/C=C/C(=O)O)ccc1O [ferulic acid]
[1]
  ORAC: 14272 μmolTolox/g
[2]
  HORAC: 9868 μmolGAE/g

## O=C1O[C@H]([C@@H](O)CO)C(O)=C1O [Vitamin C, ascorbic acid]
[1]
  ORAC: 4456 μmolTolox/g
[2]
  HORAC: No activity
